Consider nine compounds from publication PMC7823712, “Synthesis and Antiplasmodial Activity of Novel Bioinspired Imidazolidinedione Derivatives” (Biomolecules, 2020).

Molecules are shown by their SMILES. Values after ≈ are worked out from the molar mass of the structure shown. Values joined by “and” are separate entries in the source; they are usually repeats but may differ in a detail not shown here. Equal entries are not always repeated. Where two headings read alike, the source gives them in different places.

For series [1], the system named is P. falciparum D10 (CQ-sensitive) strain. Kind of series: P. falciparum drug susceptibility assay (pLDH), D10 strain. Format: cell-based, Plasmodium falciparum. The settings on record: for IC50: Plasmodium falciparum, read-out: P. falciparum IC50 D10; for SI D10: SI = IC50 HaCaT/IC50 P. falciparum strain. The procedure: Plasmodium falciparum cultures were carried out according to Trager and Jensen, with slight modifications. […] Drugs were placed in 96-well flat-bottomed microplates starting from the concentration of 20 µg/mL and 8 serial two-fold dilutions were made. […] Parasite growth was determined spectrophotometrically (OD650) by measuring the activity of the parasite lactate dehydrogenase (pLDH), according to a modified version of the method of Makler in control and drug-treated cultures.

Series [2] concerns P. falciparum W2 (CQ-resistant) strain. Kind of series: P. falciparum drug susceptibility assay (pLDH), W2 strain. Format: cell-based, Plasmodium falciparum. The settings on record: for IC50: Plasmodium falciparum, read-out: P. falciparum IC50 W2; for RI: RI = IC50 CQ resistant P. falciparum strain/IC50 CQ sensitive P. falciparum strain; for SI W2: SI = IC50 HaCaT/IC50 P. falciparum strain. The procedure: Plasmodium falciparum cultures were carried out according to Trager and Jensen, with slight modifications. The CQ-susceptible strain D10 and the CQ-resistant strain W2 were maintained at 5% hematocrit (human type A-positive red blood cells) in RPMI 1640 (EuroClone, Milan, Italy) medium with the addition of 1% AlbuMax (Invitrogen, Milan, Italy), 0.01% hypoxanthine, 20 mM Hepes, and 2 mM glutamine. All the cultures were maintained at 37 °C in a standard gas mixture consisting of 1% O2, 5% CO2, and 94% N2. Compounds were dissolved in DMSO and then diluted with medium to achieve the required concentrations (final DMSO concentration < 1%, which is non-toxic to the parasite). Drugs were placed in 96-well flat-bottomed microplates starting from the concentration of 20 µg/mL and 8 serial two-fold dilutions were made. Asynchronous cultures with parasitaemia of 1–1.5% and 1% final hematocrit were aliquoted into the plates and incubated for 72 h at 37 °C. Parasite growth was determined spectrophotometrically (OD650) by measuring the activity of the parasite lactate dehydrogenase (pLDH), according to a modified version of the method of Makler in control and drug-treated cultures. The antimalarial activity is expressed as 50% inhibitory concentrations (IC50); […]

The next series concerns HaCaT cells. Kind of series: Cytotoxicity assay (MTT) on HaCaT cells. The settings on record: Homo sapiens, 48 h. Type of series: cell-based. How it is done:
HaCaT cells were cultured in DMEM medium with 10% FBS, GlutaMAX™ and antibiotic-antimycotic. Cells were cultured at 37 °C in a humidified atmosphere containing 5% CO2. To evaluate the cytotoxic activity of tested compounds, the MTT assay was used. Cells (5 × 10^3 cells/well) were plated into a 96-multiwell plate and incubated for 24 h, to grow as monolayers. Subsequently, different doses of compounds dissolved in DMSO were added to each well and mixed. Plates were then incubated for 48 h. The culture media with tested samples were then removed, and cells in each well were treated with 50 μL of complete culture medium with MTT. After 4 h of incubation in a cell culture incubator, MTT solution was replaced with DMSO (50 μL/well) and plates were agitated for 5 min to dissolve the formazan salts. Formazan absorbance was measured at 570 nm, with background measured at 630 nm, using an Asys UVM 340 Microplate Reader (Cambridge, UK). Results were expressed as IC50 values, with respect to the control (not treated cells).

The nature of another series: Hemolysis assay. Format: cell-based. The note with it: human erythrocyte suspension, fresh human erythrocytes. The procedure:
The study protocol was approved by the Bioethics Commission at the Lower Silesian Medical Chamber (1/PNHAB/2018). Hemolytic activity was estimated by the measurement of hemoglobin release from human erythrocyte suspensions after incubation with (5), (6), (7) and (8), as previously described. Compouds dissolved in DMSO were added in a volume corresponding to a final concentration of 20 µg/mL in the sample (DMSO was added in an identical volume). Negative and positive controls were also determined. Hemolysis (H) was calculated according to the following formula:H (%) = [(Asample − Anegative control)/(Apositive control − Anegative control)] × 100(1) where Asample, Anegative control, and Apositive control represent the absorbances of the sample, and negative (erythrocytes in PBS buffer) and positive (erythrocytes in distilled water) controls, respectively.

A further series in a line: Solubility in water. The settings on record: statement in words. Format: physicochemical.
Series [3] deals with FcM29-Cameroon, a high chloroquine-resistant strain of P. falciparum. The arrangement: method as in PMID 21612900. The note with it: cited from earlier work.
In series [4] the test system is Plasmodium falciparum 3D7. The arrangement: method as in PMID 25797165. The note with it: read-out: IC50 against Plasmodium falciparum 3D7; cited from earlier work.
Series [5] relates to chloroquine-resistant Dd2 strain. The arrangement: method as in PMID 25797165. The note with it: compared with 3D7; cited from earlier work.
In a further series the test system is W2 strain. The arrangement: method as in PMID 16190773. The note with it: cited from earlier work.
Setting [6] is: D10 (CQ-sensitive), 72 h, pLDH, IC50 expressed in µM.
Setting [7] is: W2 (CQ-resistant), 72 h, pLDH, IC50 expressed in µM.

In the case of `O=C1NC2(CCc3ccccc32)C(=O)N1CCCCCN1CCN(c2nc3ccccc3[nH]2)CC1` (racemic) [(6), (R,S)-1-(5-(4-(1H-Benzo[d]imidazol-2-yl)piperazin-1-yl)pentyl)-2′,3′-dihydrospiro[imidazolidine-4,1′-indene]-2,5-dione], the IC50 (commonly the concentration at which inhibition is half-maximal) in [1] (setting [6]) stood at 17.5 ± 1.55 µM; in series [1] (D10 (CQ-sensitive), 72 h, pLDH) it was 8.27 ± 0.737 µg/mL; in series [2] (setting [7]), 10.1 ± 0.2 µM; in [2] (W2 (CQ-resistant), 72 h, pLDH), 4.78 ± 0.0974 µg/mL; in the series with HaCaT cells, 27.4 µg/mL; in the series on HaCaT cells (IC50 expressed in µM) it was 58 ± 1.48 µM. The “SI D10” value in [1] stood at 3.31. In series [2], this compound returned an RI of 0.58. Further, the “SI W2” value in series [2] is listed as 5.73.

In the case of `O=C1NC2(CCCc3ccccc32)C(=O)N1CCCCCN1CCN(C2Cc3ccccc3C2)CC1` (racemic) [(7), (R,S)-1-(5-(4-(2,3-Dihydro-1H-inden-2-yl)piperazin-1-yl)pentyl)-3′,4′-dihydro-2′H-spiro[imidazolidine-4,1′-naphthalene]-2,5-dione], the IC50 in [1] (setting [6]) was found to be 19.9 ± 0.29 µM; in [1] (D10 (CQ-sensitive), 72 h, pLDH), 9.66 ± 0.141 µg/mL; in series [2] (setting [7]), 8.93 ± 1.35 µM; in [2] (W2 (CQ-resistant), 72 h, pLDH), 4.35 ± 0.659 µg/mL; in the series on HaCaT cells it was 30.5 µg/mL; in the series on HaCaT cells (IC50 expressed in µM), 62.8 ± 2.12 µM. In [1], the “SI D10” value stood at 3.16. Also, the RI in [2] came to 0.45. Further, the “SI W2” value in series [2] amounted to 7.02.

For the compound `O=C1NC2(CCc3ccccc32)C(=O)N1CCCCCN1CCN(C2Cc3ccccc3C2)CC1` (racemic) [(8), (R,S)-1-(5-(4-(2,3-Dihydro-1H-inden-2-yl)piperazin-1-yl)pentyl)-2′,3′-dihydrospiro[imidazolidine-4,1′-indene]-2,5-dione], the IC50 in [1] (D10 (CQ-sensitive), 72 h, pLDH) is greater than 10 µg/mL; in series [2] (setting [7]) it was 12 ± 4.12 µM; in series [2] (W2 (CQ-resistant), 72 h, pLDH), 5.65 ± 1.95 µg/mL; in the series with HaCaT cells it was 22.7 µg/mL; in the series with HaCaT cells (IC50 expressed in µM) it was 48.1 ± 2.49 µM. Further, the “SI W2” value in series [2] was determined as 4.02.

For the compound `O=C1NC2(CCCc3ccccc32)C(=O)N1CCCCCN1CCN(c2nc3ccccc3[nH]2)CC1` (racemic) [Compound (5), (R,S)-1-(5-(4-(1H-Benzo[d]imidazol-2-yl)piperazin-1-yl)pentyl)-3′,4′-dihydro-2′H-spiro[imidazolidine-4,1′-naphthalene]-2,5-dione], the 50% inhibitory concentration (IC50) in series [1] (setting [6]) was 12.75 ± 0.02 µM; in series [1] (D10 (CQ-sensitive), 72 h, pLDH), 6.2 ± 0.892 µg/mL; in [2] (setting [7]), 4.98 ± 0.52 µM; in [2] (W2 (CQ-resistant), 72 h, pLDH) it was 2.42 ± 0.255 µg/mL; in the series with HaCaT cells it was 20.2 µg/mL; with HaCaT cells (IC50 expressed in µM), 41.6 ± 2.43 µM. Moreover, in [1], the “SI D10” value was 3.26. The compound further showed an RI in series [2] of 0.39. The “SI W2” value in series [2] was found to be 8.34. Moreover, the hemolysis at 30 min, 20 µg/mL in the series “Hemolysis assay” was determined as 5.6%. The solubility in water result in the series “Solubility in water” is “low solubility in water”.

As for `CN1C(=N)N(C)/C(=C/c2c[nH]c3ccccc23)C1=O` [Aplysinopsin], the “IC50 against FcM29-Cameroon” value in series [3] is 0.43 µg/mL (≈ 1.69 µM). In addition, in series [3] (read-out: IC50 against FcM29-Cameroon), the IC50 is 1.69 µM.

Turning to `CCN(CC)CCCC(C)Nc1ccnc2cc(Cl)ccc12` (stereo not shown) [CQ, Chloroquine, reference compound], the half-inhibitory concentration (IC50) is 0.00764 µg/mL and 10 nM in series [1] (D10, 72 h); 0.103 µg/mL and 200 nM in series [2] (W2, 72 h).

Regarding `CCN1C(=O)N(CCC(C)C)C2(CCN(Cc3cc(Cl)ccc3O)CC2)C1=O` [CWHM-123, 8-(5-chloro-2-hydroxybenzyl)-3-ethyl-1-isopentyl-1,3,8-triazaspiro[4.5]decane-2,4-dione], the IC50 in [4] is 0.31 µM. Moreover, the “potency on the chloroquine-resistant Dd2 strain” value in series [5] is given as “equivalent potency”.

As to `CCN1C(=O)N(CCC(C)C)C2(CCN(Cc3cc(Cl)c(Cl)cc3O)CC2)C1=O` [CWHM-505], the IC50 in [4] is 0.099 µM.

For the compound `CC(C)C1C(=O)C(=O)N/C1=N/C(=N)Nc1ccc(Cl)c(Cl)c1` (stereo not shown) [WR182393], the “IC50 for W2” value in the series on W2 strain is 2.66469 µg/mL.
